Measured values: US20250236616A1, “IMMUNOMODULATING AZALIDES” (Zoetis Services LLC, priority 2021, published 2025)
pIC50: −log10 of the molar value.

Tests used:
[1] = system: TNF-α; assay: Whole bovine blood assay, LPS-induced TNF-α; assay type: cell-based; details: fresh whole bovine blood, LPS stimulant; top drug concentration 250 μM
Protocol: Whole Blood Assay-Fresh whole bovine blood samples were collected into heparinized vacutainer tubes. Assay plates were prepared with 25 μL of drug diluted in PBS at varying concentration in 96 round bottom wells, then 225 μL of blood was added and plates incubated at 37° C. for 4 hours. Cells were stimulated with LPS (or PBS for controls) by adding 25 μL to the plates at a final concentration of 1 μg/mL and incubated at 37° C. for 18 hours. To collect plasma, plates were centrifuged at 2,000×g for 10 minutes and 100 μL of supernatant was transferred to a 96 well polypropylene plate that was sealed and stored at −80° C. Samples were assayed for cytokines using the Meso Scale Discovery (MSD) platform (described below). This same MSD platform was used to assess cytokines in the plasma collected directly from drug treated animals.
Cytokine Detection—An MSD U-Plex cytokine assay was developed following the MSD U-Plex protocol guide and included biotinylated capture antibodies against: bovine Interleukin (IL)-1β (Biorad), bovine IL-6 (R&D Systems) and bovine tumor necrosis factor (TNF)-α (R&D Systems). […] Assay calibrators (Kingfisher) were diluted to a concentration of […] in control lithium heparin plasma, followed by 4-fold serial dilutions into plasma. […] Antibodies were used at the following concentrations: anti-IL-1β at 1 μg/mL, anti-IL-6 at 1 μg/mL and anti-TNF-α at 0.5 μg/mL. Cytokines were quantified according to manufacturer's instructions using a chemiluminescent readout. In brief, 0.5 mL of all biotinylated antibodies were diluted to 10 μg/mL with Diluent 100 and paired to their respective linkers by adding 750 μL of supplied Linker solution and incubated for 30 minutes followed by addition of Stop solution for another 30 minutes. The linked antibodies were then diluted 10-fold into Stop solution. Plates were coated by adding 50 μL of antibody solutions per well and incubated covered and shaking for 1 hour at room temperature. Plates were washed three times with PBS/Tween20 prior to samples or standards being added at 30 μL per well and incubated as above. Plates were washed three times before detection antibodies were added along with 2% goat and rabbit serum to block and incubated same as above. Plates were washed a further three times before addition of 150 μL 2X Read buffer and read immediately on the SI6000 instrument (MSD). For soluble protein levels, a BCA protein kit (Thermofisher) was used. The cytokine concentrations (pg/mL) were normalized to the total protein levels for each sample. [Bassel et. al., BMC Veterinary Research (2020) 16:168]
Therefore, a fresh whole bovine blood assay was developed with LPS as a stimulant (TLR-4 agonist) and with IL-1β and TNF-α as the read-out. Compounds of the invention were evaluated against a positive control for their ability to inhibit LPS-induced IL-1β and TNF-α as an overall evaluation of relative potency and modulation of target pathways.
TNFα is a cell signaling protein, cytokine, that plays a key role in both acute and chronic inflammation. In the bovine whole blood in vitro screening assay the inhibition of TNFα as induced by stimulation by lipopolysaccharide (LPS) and as measured by half the maximal inhibitory concentration (IC50) is recognized as the primary biomarker of immunomodulation potency upon pretreatment with the compounds of the invention. IL-1 B is a mediator of the inflammation response and is involved in a number of cellular activities including proliferation, differentiation and apoptosis. IL-1ß is also released upon cellular stress or cytotoxicity or upon TLR stimulation. […] In order to estimate a therapeutic index from the in vitro assay a differential between the TNFα IC50 (immunomodulation potency) versus the perceived cellular toxicity concentration (IL-1β release or overstimulation) was utilized.

[2] = system: IL-6; assay: Whole bovine blood assay, LPS-induced IL-6; assay type: cell-based; details: fresh whole bovine blood, LPS stimulant; top drug concentration 250 μM

CC[C@H]1OC(=O)[C@H](C)[C@@H](O)[C@H](C)[C@@H](O[C@H]2O[C@@H](C)C[C@@H](N(C)S(=O)(=O)Nc3ccccc3)[C@@H]2Oc2ccc(F)cc2)[C@](C)(O)C[C@@H](C)CN[C@H](C)[C@@H](O)[C@]1(C)O [Example A-37]
pIC50 [1]: 4.72 | pIC50 [2]: 4.34

CC[C@H]1OC(=O)[C@H](C)[C@@H](O[C@H]2C[C@@](C)(OC)[C@](O)(CNCCC(C)C)[C@H](C)O2)[C@H](C)[C@@H](O[C@@H]2O[C@H](C)C[C@H](N(C)S(=O)(=O)c3ccc(Cl)cc3)[C@H]2O)[C@](C)(O)C[C@@H](C)CN[C@H](C)[C@@H](O)[C@]1(C)O [Example B-21]
pIC50 [1]: 5.30 | pIC50 [2]: 5.22

CC[C@H]1OC(=O)[C@H](C)[C@@H](O[C@H]2C[C@@](C)(OC)[C@](O)(CNC3CCCC3)[C@H](C)O2)[C@H](C)[C@@H](O[C@@H]2O[C@H](C)C[C@H](N(C)S(=O)(=O)c3ccc(Cl)cc3)[C@H]2O)[C@](C)(O)C[C@@H](C)CN[C@H](C)[C@@H](O)[C@]1(C)O [Example B-22]
pIC50 [1]: 5.05

CC[C@H]1OC(=O)[C@H](C)[C@@H](O[C@H]2C[C@@](C)(OC)[C@](O)(CNCC3CC3)[C@H](C)O2)[C@H](C)[C@@H](O[C@@H]2O[C@H](C)C[C@H](N(C)S(=O)(=O)c3ccc(Cl)cc3)[C@H]2O)[C@](C)(O)C[C@@H](C)CN[C@H](C)[C@@H](O)[C@]1(C)O [Example B-24]
pIC50 [1]: 5.00

CC[C@H]1OC(=O)[C@H](C)[C@@H](O[C@H]2C[C@@](C)(OC)[C@](O)(CNCc3ccc(C(F)(F)F)cc3)[C@H](C)O2)[C@H](C)[C@@H](O[C@@H]2O[C@H](C)C[C@H](N(C)S(=O)(=O)c3ccc(Cl)cc3)[C@H]2O)[C@](C)(O)C[C@@H](C)CN[C@H](C)[C@@H](O)[C@]1(C)O [Example B-25]
pIC50 [1]: 5.30 | pIC50 [2]: 4.77

CC[C@H]1OC(=O)[C@H](C)[C@@H](O[C@H]2C[C@@](C)(OC)[C@](O)(CNc3ccccc3)[C@H](C)O2)[C@H](C)[C@@H](O[C@@H]2O[C@H](C)C[C@H](N(C)S(=O)(=O)c3ccc(Cl)cc3)[C@H]2O)[C@](C)(O)C[C@@H](C)CN[C@H](C)[C@@H](O)[C@]1(C)O [Example B-32]
pIC50 [1]: 4.64

CC[C@H]1OC(=O)[C@H](C)[C@@H](O[C@H]2C[C@@](C)(OC)[C@](O)(CNc3ccccc3)[C@H](C)O2)[C@H](C)[C@@H](O[C@@H]2O[C@H](C)C[C@H](N(C)S(=O)(=O)Nc3ccc(C(F)(F)F)cc3)[C@H]2O)[C@](C)(O)C[C@@H](C)CN[C@H](C)[C@@H](O)[C@]1(C)O [Example B-64]
pIC50 [1]: 5.10

CC[C@H]1OC(=O)[C@H](C)[C@@H](O[C@H]2C[C@@](C)(OC)[C@](O)(CNCCC3CCOCC3)[C@H](C)O2)[C@H](C)[C@@H](O[C@@H]2O[C@H](C)C[C@H](N(C)S(=O)(=O)Nc3ccc(C(F)(F)F)cc3)[C@H]2O)[C@](C)(O)C[C@@H](C)CN[C@H](C)[C@@H](O)[C@]1(C)O [Example B-66]
pIC50 [1]: 4.52

CC[C@H]1OC(=O)[C@H](C)[C@@H](O[C@H]2C[C@@](C)(OC)[C@](O)(CNC3CCCCC3)[C@H](C)O2)[C@H](C)[C@@H](O[C@@H]2O[C@H](C)C[C@H](N(C)S(=O)(=O)Nc3ccc(C(F)(F)F)cc3)[C@H]2O)[C@](C)(O)C[C@@H](C)CN[C@H](C)[C@@H](O)[C@]1(C)O [Example B-69]
pIC50 [2]: 4.80

CC[C@H]1OC(=O)[C@H](C)[C@@H](O[C@H]2C[C@@](C)(OC)[C@](O)(CNCCCOC)[C@H](C)O2)[C@H](C)[C@@H](O[C@@H]2O[C@H](C)C[C@H](N(C)S(=O)(=O)Nc3ccc(C(F)(F)F)cc3)[C@H]2O)[C@](C)(O)C[C@@H](C)CN[C@H](C)[C@@H](O)[C@]1(C)O [Example B-78]
pIC50 [1]: 4.68

CCOCCNC[C@]1(O)[C@H](C)O[C@@H](O[C@H]2[C@H](C)[C@@H](O[C@@H]3O[C@H](C)C[C@H](N(C)S(=O)(=O)Nc4ccc(C(F)(F)F)cc4)[C@H]3O)[C@](C)(O)C[C@@H](C)CN[C@H](C)[C@@H](O)[C@](C)(O)[C@@H](CC)OC(=O)[C@@H]2C)C[C@@]1(C)OC [Example B-83]
pIC50 [1]: 4.52

CC[C@H]1OC(=O)[C@H](C)[C@@H](O[C@H]2C[C@@](C)(OC)[C@](O)(CNCCOC)[C@H](C)O2)[C@H](C)[C@@H](O[C@@H]2O[C@H](C)C[C@H](N(C)S(=O)(=O)Nc3ccc(C(F)(F)F)cc3)[C@H]2O)[C@](C)(O)C[C@@H](C)CN[C@H](C)[C@@H](O)[C@]1(C)O [Example B-84]
pIC50 [1]: 4.29

CCCNC[C@]1(O)[C@H](C)O[C@@H](O[C@H]2[C@H](C)[C@@H](O[C@@H]3O[C@H](C)C[C@H](N(C)S(=O)(=O)c4nccn4C)[C@H]3Oc3ccc(F)cc3C)[C@](C)(O)C[C@@H](C)CN[C@H](C)[C@@H](O)[C@](C)(O)[C@@H](CC)OC(=O)[C@@H]2C)C[C@@]1(C)OC [Example B-121]
pIC50 [2]: 5.30

CC[C@H]1OC(=O)[C@H](C)[C@@H](O[C@H]2C[C@@](C)(OC)[C@](O)(CNCCS(=O)(=O)c3ccccc3)[C@H](C)O2)[C@H](C)[C@@H](O[C@@H]2O[C@H](C)C[C@H](N(C)S(=O)(=O)Nc3ccc(C(F)(F)F)cc3)[C@H]2O)[C@](C)(O)C[C@@H](C)CN[C@H](C)[C@@H](O)[C@]1(C)O [Example B-128]
pIC50 [2]: 4.64

CC[C@H]1OC(=O)[C@H](C)[C@@H](O[C@H]2C[C@@](C)(OC)[C@](O)(CN3CCc4ccccc4C3)[C@H](C)O2)[C@H](C)[C@@H](O[C@@H]2O[C@H](C)C[C@H](N(C)S(=O)(=O)c3ccc(Cl)cc3)[C@H]2O)[C@](C)(O)C[C@@H](C)CN[C@H](C)[C@@H](O)[C@]1(C)O [Example C-10]
pIC50 [1]: 4.64

CC[C@H]1OC(=O)[C@H](C)[C@@H](O[C@H]2C[C@@](C)(OC)[C@](O)(CN3CCCCC3)[C@H](C)O2)[C@H](C)[C@@H](O[C@@H]2O[C@H](C)C[C@H](N(C)S(=O)(=O)Nc3ccc(Br)cc3)[C@H]2O)[C@](C)(O)C[C@@H](C)CN[C@H](C)[C@@H](O)[C@]1(C)O [Example C-29]
pIC50 [1]: 4.85

CC[C@H]1OC(=O)[C@H](C)[C@@H](O[C@H]2C[C@@](C)(OC)[C@](O)(CN3CCCCC3)[C@H](C)O2)[C@H](C)[C@@H](O[C@@H]2O[C@H](C)C[C@H](N(C)S(=O)(=O)Nc3ccc(I)cc3)[C@H]2O)[C@](C)(O)C[C@@H](C)CN[C@H](C)[C@@H](O)[C@]1(C)O [Example C-30]
pIC50 [1]: 5.05

CC[C@H]1OC(=O)[C@H](C)[C@@H](O[C@H]2C[C@@](C)(OC)[C@](O)(CN3CCCCC3)[C@H](C)O2)[C@H](C)[C@@H](O[C@@H]2O[C@H](C)C[C@H](N(C)S(=O)(=O)Nc3ccc(Cl)c(C(F)(F)F)c3)[C@H]2O)[C@](C)(O)C[C@@H](C)CN[C@H](C)[C@@H](O)[C@]1(C)O [Example C-31]
pIC50 [1]: 5.10

CC[C@H]1OC(=O)[C@H](C)[C@@H](O[C@H]2C[C@@](C)(OC)[C@](O)(CN3CCCCC3)[C@H](C)O2)[C@H](C)[C@@H](O[C@@H]2O[C@H](C)C[C@H](N(CC(C)C)S(=O)(=O)c3ccc(OC)cc3)[C@H]2O)[C@](C)(O)C[C@@H](C)CN[C@H](C)[C@@H](O)[C@]1(C)O [Example C-43]
pIC50 [2]: 5.40

CC[C@H]1OC(=O)[C@H](C)[C@@H](O[C@H]2C[C@@](C)(OC)[C@](O)(CN3CCCCC3)[C@H](C)O2)[C@H](C)[C@@H](O[C@@H]2O[C@H](C)C[C@H](N(C)S(=O)(=O)c3ccc(S(F)(F)(F)(F)F)cc3)[C@H]2O)[C@](C)(O)C[C@@H](C)CN[C@H](C)[C@@H](O)[C@]1(C)O [Example C-47]
pIC50 [2]: 5.40

CC[C@H]1OC(=O)[C@H](C)[C@@H](O[C@H]2C[C@@](C)(OC)[C@](O)(CN3CCCCC3)[C@H](C)O2)[C@H](C)[C@@H](O[C@@H]2O[C@H](C)C[C@H](N(C)S(=O)(=O)Nc3ccccc3)[C@H]2Oc2ccc(F)cc2)[C@](C)(O)C[C@@H](C)CN[C@H](C)[C@@H](O)[C@]1(C)O [Example C-51]
pIC50 [1]: 5.05

CC[C@H]1OC(=O)[C@H](C)[C@@H](O[C@H]2C[C@@](C)(OC)[C@](O)(CN3CCCCC3)[C@H](C)O2)[C@H](C)[C@@H](O[C@@H]2O[C@H](C)C[C@H](N(C)S(=O)(=O)Nc3ccccc3)[C@H]2Oc2ccccc2)[C@](C)(O)C[C@@H](C)CN[C@H](C)[C@@H](O)[C@]1(C)O [Example C-52]
pIC50 [1]: 4.82
